# Results: patent US20240042019A1, “OPTIMIZED TLR7 LIGANDS AND USES THEREOF” (Genentech, Inc., priority 2021, published 2024)
# Key:
# TLR7 [1] = biological target: T1, TLR7 (Homo sapiens, UniProt Q9NYK1); experiment: PBMC stimulation with DOTAP-complexed RNA ligands, IFN-α ELISA; assay type: cell-based
# T1 construct: Peripheral blood mononuclear cells (PBMCs) were obtained from buffy coats from healthy adult donors; endogenous in cells; host or cells: primary human PBMCs from healthy donor buffy coats (TLR7 expressed by pDCs)
# T1 sequence (Q9NYK1 27-1049): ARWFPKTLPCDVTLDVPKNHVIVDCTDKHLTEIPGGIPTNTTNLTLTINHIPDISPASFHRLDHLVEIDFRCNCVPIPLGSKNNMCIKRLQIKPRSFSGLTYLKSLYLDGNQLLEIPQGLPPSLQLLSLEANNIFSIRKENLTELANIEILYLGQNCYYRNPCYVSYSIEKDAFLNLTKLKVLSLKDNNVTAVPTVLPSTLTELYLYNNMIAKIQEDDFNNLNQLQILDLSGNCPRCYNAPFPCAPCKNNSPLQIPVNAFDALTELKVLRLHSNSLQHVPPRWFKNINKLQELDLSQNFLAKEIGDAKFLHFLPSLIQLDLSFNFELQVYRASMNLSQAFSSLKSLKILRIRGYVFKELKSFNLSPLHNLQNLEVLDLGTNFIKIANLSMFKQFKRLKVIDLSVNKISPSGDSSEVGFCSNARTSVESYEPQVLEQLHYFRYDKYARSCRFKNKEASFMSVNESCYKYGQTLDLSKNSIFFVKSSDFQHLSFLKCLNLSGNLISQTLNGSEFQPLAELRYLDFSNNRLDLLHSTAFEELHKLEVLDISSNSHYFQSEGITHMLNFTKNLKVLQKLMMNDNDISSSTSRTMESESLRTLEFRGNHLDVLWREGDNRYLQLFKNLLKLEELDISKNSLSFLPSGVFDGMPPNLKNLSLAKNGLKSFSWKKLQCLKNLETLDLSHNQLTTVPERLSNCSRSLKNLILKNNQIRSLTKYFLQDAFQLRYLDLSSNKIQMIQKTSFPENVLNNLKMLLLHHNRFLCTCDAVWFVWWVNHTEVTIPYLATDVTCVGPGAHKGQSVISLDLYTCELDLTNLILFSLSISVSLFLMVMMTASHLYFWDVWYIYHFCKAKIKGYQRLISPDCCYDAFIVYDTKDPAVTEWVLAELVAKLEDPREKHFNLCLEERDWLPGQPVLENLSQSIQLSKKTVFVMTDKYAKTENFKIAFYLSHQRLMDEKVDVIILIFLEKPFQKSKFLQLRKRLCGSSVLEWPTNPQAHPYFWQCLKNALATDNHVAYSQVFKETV
# TLR8 = biological target: T2, TLR8 (Homo sapiens, UniProt Q9NR97); experiment: PBMC stimulation with DOTAP-complexed RNA ligands, TNF-α ELISA; assay type: cell-based
# T2 construct: Peripheral blood mononuclear cells (PBMCs) were obtained from buffy coats from healthy adult donors; endogenous in cells; host or cells: primary human PBMCs from healthy donor buffy coats (TLR8 in monocytes)
# T2 sequence (Q9NR97 27-1041): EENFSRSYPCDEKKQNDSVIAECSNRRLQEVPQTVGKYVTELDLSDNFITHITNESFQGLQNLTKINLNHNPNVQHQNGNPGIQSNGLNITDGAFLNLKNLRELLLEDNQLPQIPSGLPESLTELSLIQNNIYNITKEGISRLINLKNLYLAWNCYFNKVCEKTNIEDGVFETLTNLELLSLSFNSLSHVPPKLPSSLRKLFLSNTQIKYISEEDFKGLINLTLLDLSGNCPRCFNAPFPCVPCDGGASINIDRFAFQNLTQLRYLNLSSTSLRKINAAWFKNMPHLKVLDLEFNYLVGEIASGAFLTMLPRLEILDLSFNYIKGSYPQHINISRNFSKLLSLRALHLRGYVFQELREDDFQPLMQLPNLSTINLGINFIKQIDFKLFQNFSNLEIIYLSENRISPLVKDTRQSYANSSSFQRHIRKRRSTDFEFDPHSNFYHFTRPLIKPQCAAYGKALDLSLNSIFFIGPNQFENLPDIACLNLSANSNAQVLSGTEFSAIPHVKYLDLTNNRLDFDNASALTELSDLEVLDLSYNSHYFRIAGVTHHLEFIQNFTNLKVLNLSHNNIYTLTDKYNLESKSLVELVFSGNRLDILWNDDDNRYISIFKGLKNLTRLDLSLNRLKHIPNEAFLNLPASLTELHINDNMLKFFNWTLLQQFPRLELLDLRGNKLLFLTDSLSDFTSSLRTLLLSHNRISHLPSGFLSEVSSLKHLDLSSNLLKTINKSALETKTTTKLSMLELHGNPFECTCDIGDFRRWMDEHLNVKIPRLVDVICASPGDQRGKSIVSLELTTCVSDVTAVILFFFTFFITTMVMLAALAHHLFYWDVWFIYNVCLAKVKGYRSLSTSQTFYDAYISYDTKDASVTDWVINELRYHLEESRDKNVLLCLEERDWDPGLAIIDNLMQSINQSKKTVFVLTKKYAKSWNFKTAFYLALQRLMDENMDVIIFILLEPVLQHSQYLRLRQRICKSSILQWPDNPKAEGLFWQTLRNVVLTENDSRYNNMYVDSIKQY
# recombinant RNase T2 = recombinant RNase T2 (Homo sapiens, UniProt O00584)
# recombinant RNase T2, sequence (O00584 25-256, species assumed): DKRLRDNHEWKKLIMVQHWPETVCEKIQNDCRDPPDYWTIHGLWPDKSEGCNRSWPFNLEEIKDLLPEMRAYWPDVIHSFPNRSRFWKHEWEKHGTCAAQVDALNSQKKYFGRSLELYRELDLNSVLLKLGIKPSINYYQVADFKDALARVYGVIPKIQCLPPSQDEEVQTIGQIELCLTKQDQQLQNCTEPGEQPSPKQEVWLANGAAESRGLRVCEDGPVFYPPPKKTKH
# TLR7 [2] = biological target: T1, TLR7; experiment: PBMC stimulation with p-L-arginine-complexed RNA ligands, IFN-α ELISA; assay type: cell-based
# Procedure: Peripheral blood mononuclear cells (PBMCs) were obtained from buffy coats from healthy adult donors. Buffy coat samples were first diluted with an equal volume of phosphate-buffered saline (PBS). Next, PBMCs were isolated via density gradient centrifugation with Lymphoprep density gradient media ([…] Technologies) and SepMate-50 tubes ([…] Technologies). Samples were centrifuged at 1000 g for 15 minutes. After centrifugation, the upper layers were collected by pouring into a new tube, diluted with PBS, and centrifuged at 450×g for 5 minutes. To lyse red blood cells, cell pellets were resuspended with 10 mL Ammonium-Chloride-Potassium (ACK) Lysis Buffer and incubated for 8 minutes at room temperature. After lysis, cells were washed with PBS and passed through two 70 μm cell strainers. Viable cell counts were determined with a Vi-CELL cell counter (Beckman Coulter). […] Guanosine was added between about 20 and about 30 minutes before the addition of poly-[…])-complexed RNA. […] After mixing by pipetting up and down, the reaction was incubated for 10 minutes, pipetted up and down again, and then added to the cells. In some experiments, RNA ligands were used at a final concentration of 0.6 μg/ml. Where indicated as “+2'3' cGMP”, 2'3' cyclic GMP purchased from eMolecules was complexed together with the RNA ligands. The final concentration of 2'3' cyclic GMP was 5 μg/ml. p-L-arginine was adjusted accordingly to keep the mass ratio of nucleic acid:p-L-arginine constant. Cell culture supernatants were collected 15-18 hours after stimulation and stored at -80° C. Cytokines in cell culture supernatants were detected with the BD OptEIA human TNF ELISA Set (BD Biosciences), and either Invitrogen IFN alpha Human Matched Antibody Pair kit (Thermo Fisher Scientific) or Human IFN Alpha Multi-Subtype ELISA Kit (PBL Assay Science). To test the effects of the RNA ligands described in Example 1 on TLR7 and TLR8 activation, PBMCs were stimulated with the RNA ligands using p-L-arginine complex delivery, delivery with DOTAP, or delivery without a carrier. Activity of TLR7 and TLR8 was assessed based on measurements of IFN-α or TNF-α by enzyme-linked immunosorbent assays (ELISA). In this setting, as depicted in FIG. 6, IFN-α induced by small RNAs is derived from TLR7 expressed by pDCs, or from RIG-I expressed by monocytes. In contrast, TNF-α secretion is derived from monocytes and serves as an indication of TLR8 activation. As shown in this figure, the p-L-arginine delivery restricts most of the activation to TLRs. First, the effects of the RNA ligands on TLR7 and TLR8 activation using p-L-arginine complex delivery were tested.
# pDC-depleted PBMCs = experiment: IFN-α secretion by pDC-depleted PBMCs versus PBMCs; assay type: cell-based, human; conditions: Lipofectamine-mediated transfection, pDC-depleted PBMCs vs PBMCs (FIG. 8)
# Procedure: Peripheral blood mononuclear cells (PBMCs) were obtained from buffy coats from healthy adult donors. Buffy coat samples were first diluted with an equal volume of phosphate-buffered saline (PBS). Next, PBMCs were isolated via density gradient centrifugation with Lymphoprep density gradient media ([…] Technologies) and SepMate-50 tubes ([…] Technologies). Samples were centrifuged at 1000 g for 15 minutes. After centrifugation, the upper layers were collected by pouring into a new tube, diluted with PBS, and centrifuged at 450×g for 5 minutes. To lyse red blood cells, cell pellets were resuspended with 10 mL Ammonium-Chloride-Potassium (ACK) Lysis Buffer and incubated for 8 minutes at room temperature. After lysis, cells were washed with PBS and passed through two 70 μm cell strainers. Viable cell counts were determined with a Vi-CELL cell counter (Beckman Coulter). […]
# Cell culture supernatants were collected 15-18 hours after stimulation and stored at −80° C. Cytokines in cell culture supernatants were detected with the BD OptEIA human TNF ELISA Set (BD Biosciences), and either Invitrogen IFN alpha Human Matched Antibody Pair kit (Thermo Fisher Scientific) or Human IFN Alpha Multi-Subtype ELISA Kit (PBL Assay Science). […]
Substance,IFN-α secretion (TLR7 activity) (TLR7 [1]),TNF-α secretion (TLR8 activity) (TLR8),Degradation of full RNA ligand by RNase T2 (recombinant RNase T2),IFN-α secretion (TLR7 activity) (TLR7 [2]),IFN-α secretion after pDC depletion (pDC-depleted PBMCs)
"CCUUCUUCUUCUUCUUCUUC (CCUUCUUCUUCUUCUUCUUC; all phosphodiester, sugars by position not given here) [ORN7009, reference compound]",activated TLR8 rather than TLR7,activated TLR8,degraded more quickly,no or only minor IFN-α secretion,
"GGGACGCUGACCCAGAAGAUCACUAGAAAUAGUAGAUCUUCUGGGUCAGCGUCCC (GGGACGCUGACCCAGAAGAUCACUAGAAAUAGUAGAUCUUCUGGGUCAGCGUCCC; RNA, phosphodiester; in vitro transcribed, further chemistry not given here) [IVT4, in vitro transcribed control, RIG-I ligand 3P-RNA]",,,,,maintained after pDC depletion
